“And” between values parts separate entries of the source, which are not always exact repeats. Equal entries are not always repeated.
Test system: MX-1 breast xenograft, nude mice, tumor weight change
Assay: NCI In Vivo Anticancer Drug Screen. Data for tumor model Human Mammary Carcinoma MX-1 Xenograft (subcutaneous) in NU/NU Swiss (nude) mice
Settings: endpoint: optimum tumor weight change, schedule: Q04DX003 (ip), higher = larger tumour
Procedure: The antitumor activity of compounds was measured in mice bearing transplantable tumors. Survival or tumor size were measured and the results are expressed as the measurement made in the treated group (T) divided by the measurement made in the vehicle treated control group (C). The tumor model used in this assay is Human Mammary Carcinoma MX-1 Xenograft (subcutaneous) in NU/NU Swiss (nude) mice

[1] = dose: 50.0 mg/kg/injection, vehicle: saline
[2] = dose: 50.0 mg/kg/injection, vehicle: Klucel (hydroxypropylcellulose) (HPC)
[3] = dose: 100.0 mg/kg/injection, vehicle: saline
[4] = dose: 200.0 mg/kg/injection, vehicle: saline
[5] = dose: 400.0 mg/kg/injection, vehicle: saline
[6] = dose: 800.0 mg/kg/injection, vehicle: saline
[7] = dose: 100.0 mg/kg/injection, vehicle: saline with Tween-80
[8] = dose: 50.0 mg/kg/injection, vehicle: saline with Tween-80

CC(C)CCCCCCCCCCCCC(=O)NCC(=O)NC1C(C)OC(Nc2ncnc3nc[nH]c23)C(O)C1O (configuration not stated)
T/C (dose: 3.13 mg/kg/injection, vehicle: distilled water + Tween-80): 102 % of control

COc1cc([C@@H]2c3cc4c(c(O)c3C[C@H]3COC(=O)[C@@H]32)OCO4)cc(OC)c1OC
T/C (dose: 2.5 mg/kg/injection, vehicle: saline): 113 % of control
T/C (dose: 5.0 mg/kg/injection, vehicle: saline): 64 % of control
T/C (dose: 10.0 mg/kg/injection, vehicle: saline): 112 % of control

OCC1OC(n2cnc3cncnc32)C(O)C1O (configuration not stated)
T/C (dose: 12.5 mg/kg/injection, vehicle: saline): 88 % of control
T/C (dose: 25.0 mg/kg/injection, vehicle: saline): 94 % of control
T/C [1]: 108 % of control

C[n+]1c(-c2cccc3ccccc23)c2cc(N)ccc2c2ccccc21
T/C (dose: 3.0 mg/kg/injection, vehicle: saline): 76 % of control and 82 % of control
T/C (dose: 6.0 mg/kg/injection, vehicle: saline): 78 % of control

COC1C(C)OC(OC2CC(C)(O)Cc3cc4c(c(O)c32)C(=O)c2c(O)cc3c(c2C4=O)OC2OC3(C)C(O)C(N(C)C)C2O)C(OC)C1(C)OC (configuration not stated)
T/C (dose: 5.0 mg/kg/injection, vehicle: Klucel (hydroxypropylcellulose) (HPC)): 204 % of control
T/C (dose: 10.0 mg/kg/injection, vehicle: Klucel (hydroxypropylcellulose) (HPC)): 207 % of control

CC(=O)OCC(=O)[C@@]12OC(C)(C)O[C@@H]1C[C@H]1[C@@H]3CC(C=O)=C4C=C(OCCCl)CC[C@]4(C)[C@@]3(F)[C@@H](O)C[C@@]12C
T/C [2]: 54 % of control

COc1cccc2c1C(=O)c1c(O)c3c(c(O)c1C2=O)C[C@@](O)(C(C)=O)C[C@@H]3OC1CC(N)C(O)C(C)O1 (some centres not stated)
T/C (dose: 1.0 mg/kg/injection, vehicle: saline): 72 % of control

COC(OC(CO)C(O)S(=O)(=O)O)C(O)S(=O)(=O)O (configuration not stated)
T/C (dose: 25.0 mg/kg/injection, vehicle: Klucel (hydroxypropylcellulose) (HPC)): 83 % of control
T/C [2]: 80 % of control
T/C (dose: 100.0 mg/kg/injection, vehicle: Klucel (hydroxypropylcellulose) (HPC)): 62 % of control
T/C [3]: 63 % of control
T/C [4]: 74 % of control
T/C [5]: 68 % of control
T/C [6]: 47 % of control

O=C1N(Cl)C(=O)C(c2ccc(Cl)cc2)(c2ccc(Cl)cc2)N1Cl
T/C [7]: 98 % of control

CN(C)N=Nc1ccccc1
T/C [2]: 221 % of control

CC(CN1CC(=O)NC(=O)C1)N1CC(=O)NC(=O)C1 (configuration not stated)
T/C (dose: 100.0 mg/kg/injection, vehicle: suspension in saline): 65 % of control
T/C (dose: 200.0 mg/kg/injection, vehicle: suspension in saline): 73 % of control
T/C (dose: 400.0 mg/kg/injection, vehicle: suspension in saline): 55 % of control

CCN(CC)CCCC(C)Nc1c2ccc(Cl)cc2nc2ccc(OC)cc12 (configuration not stated)
T/C [8]: 95 % of control
T/C [7]: 88 % of control

Nc1cc2[nH]cnc2c(=O)[nH]1
T/C [1]: 58 % of control
T/C [3]: 87 % of control
T/C [4]: 59 % of control

CCCCNCCCNCCCNC(=O)c1csc(-c2csc(CCNC(=O)C(NC(=O)C(C)C(O)C(C)NC(=O)C(NC(=O)c3nc(C(CC(N)=O)NCC(N)C(N)=O)nc(N)c3C)C(OC3OC(CO)C(O)C(O)C3OC3OC(CO)C(O)C(OC(N)=O)C3O)c3cnc[nH]3)C(C)O)n2)n1 (configuration not stated)
T/C (dose: 7.5 mg/kg/injection, vehicle: saline): 49 % of control and 57 % of control
T/C (dose: 30.0 mg/kg/injection, vehicle: saline): 29 % of control (2×) and 49 % of control
T/C (dose: 60.0 mg/kg/injection, vehicle: saline): 5 % of control and 12 % of control and 18 % of control
T/C (dose: 120.0 mg/kg/injection, vehicle: saline): 2 % of control

CC(=O)OCC1OC(n2cc(CBr)nn2)C(OC(C)=O)C(OC(C)=O)C1OC(C)=O (configuration not stated)
T/C (dose: 25.0 mg/kg/injection, vehicle: saline with Tween-80): 119 % of control
T/C [8]: 150 % of control
T/C [7]: 57 % of control

O=C/C(Cl)=C(/Cl)C(=O)O
T/C (dose: 12.5 mg/kg/injection, vehicle: saline with Tween-80): 96 % of control

O=[N+]([O-])/C=C\c1ccc2c(c1)OCO2
T/C [2]: 83 % of control
T/C (dose: 200.0 mg/kg/injection, vehicle: Klucel (hydroxypropylcellulose) (HPC)): 81 % of control

N[C@@H](Cc1ccc(N(CCCl)CCCl)cc1)C(=O)O
T/C (dose: 2.0 mg/kg/injection, vehicle: Klucel (hydroxypropylcellulose) (HPC)): 49 % of control
T/C (dose: 4.0 mg/kg/injection, vehicle: Klucel (hydroxypropylcellulose) (HPC)): 37 % of control
T/C (dose: 4.0 mg/kg/injection, vehicle: suspension in saline): 19 % of control and 36 % of control
T/C (dose: 8.0 mg/kg/injection, vehicle: Klucel (hydroxypropylcellulose) (HPC)): -42 % of control

COc1cccc2c1C(=O)c1c(O)c3c(c(O)c1C2=O)C[C@@](O)(C(=O)CO)C[C@@H]3OC1CC(N)CC(C)O1 (some centres not stated)
T/C (dose: 0.13 mg/kg/injection, vehicle: water): 93 % of control
T/C (dose: 0.25 mg/kg/injection, vehicle: water): 112 % of control
T/C (dose: 0.5 mg/kg/injection, vehicle: water): 97 % of control
T/C (dose: 0.75 mg/kg/injection, vehicle: water): 93 % of control
T/C (dose: 1.0 mg/kg/injection, vehicle: water): 65 % of control
T/C (dose: 1.5 mg/kg/injection, vehicle: water): 78 % of control
T/C (dose: 3.0 mg/kg/injection, vehicle: water): 63 % of control

CN(N=O)C(=O)N[C@@H](C=O)[C@@H](O)[C@H](O)[C@H](O)CO
T/C [3]: 58 % of control
T/C [4]: 80 % of control

O=C(O)CP(=O)(O)O
T/C [4]: 87 % of control
T/C [5]: 69 % of control
T/C [6]: 48 % of control
T/C (dose: 1600.0 mg/kg/injection, vehicle: saline): 50 % of control

Source: PubChem BioAssay AID294 (DTP/NCI, 2004)
